# Test results from patent US12583938B2, “Protein biomarker and uses thereof” (Daiichi Sankyo Co., Ltd., priority 2013, dated 2026).
# Entries after “also recorded” stand apart in the source; their conditions may differ. Where two headings read alike, the source gives them in different places.
# What was measured:
# [1] = test system: Stage IIIb/IV NSCLC; conditions: for On-Study Death / Primary Cause of On-Study Death: Adverse Event / Primary Cause of On-Study Death: Disease Progression / Primary Reason for Discontinuing Study Treatment: Death / Primary Reason for Discontinuing Study Treatment: Progressive Disease (Radiographic Progression) / Primary Reason for Discontinuing Study Treatment: Adverse Event: Enrolled/Randomized Analysis Set; for OS: Subjects (%) with events / OS: Subjects (%) without events (censored) / PFS: Subjects (%) with events / PFS: Subjects (%) without events (censored) / Progression-Free Survival, Time to event, Median / Overall Survival, Time to event, Median: Full Analysis Set; for Progression-Free Survival, Time to event, Median / Overall Survival, Time to event, Median: Kaplan-Meier Estimate; for Overall Survival, Time to event, Median: preliminary; for HR for PFS (pooled dose vs placebo): soluble HRG high group, + erlotinib
# Method: (§1) In both portions of the study, subjects received 150 mg of erlotinib orally once daily. […] Tumors were to be assessed every 6 weeks (±3 days) up to the first 24 weeks of the study, then every 12 weeks (±7 days) independent of treatment cycle.
# An “HRG high” subject was defined as a subject with observed soluble HRG concentration of higher than 980 pg/mL, the Quartile 3 of the sample set. Soluble HRC concentration was measured by the improved ELISA method disclosed herein.
# At the point of primary analysis, the treatment assignment for all subjects was unblinded to designated study personnel for analysis after data were reconciled and cleaned, and a snapshot of the clean database was created. To minimize potential bias, individual treatment assignment was not divulged to subjects or Investigators until study closure.
# All efficacy analyses were performed on the full analysis set, which includes all subjects in the randomized analysis set who received at least one dose of randomized study medication. The primary efficacy endpoint was PFS. PFS is defined as the time from the date of randomization to the earlier of the dates of the first objective documentation of radiographic disease progression or death due to any cause. A subject who was alive with no objective documentation of (radiographic) disease progression by the data cut-off date was to be censored at the date of the last evaluable tumor assessment. The key secondary efficacy endpoint, overall survival, was defined as the time from the date of randomization to death due to any cause and was analyzed in the same manner as the primary efficacy endpoint PFS.
# Kaplan-Meier curves were generated for PFS and used to calculate medians and 95% CIs for each treatment group.
# The stratification factors included histology (Adenocarcinoma vs Non-Adenocarcinoma) and best response to prior therapy (CR/PR/SD vs PD). […] Cox's proportional hazards model with the same stratification factors used for the stratified log-rank test.
# Unless otherwise indicated, tog-rank p-values and HRs for PFS and OS were based on the primary analysis adjusted for the stratification factors at randomization as described above.
# [2] = monotherapy Phase 1 study of patritumab; assay type: in vivo
# Method: A higher maintenance dose level of 18 mg/kg was also included to accommodate the possible effect of reduced tumor tissue penetration in the clinical setting relative to animal models.
# [3] = test system: Stage IIIb/IV NSCLC; conditions: Phase 1b, 150 mg erlotinib daily + 18 mg/kg patritumab every 3 weeks, 7 subjects
# Method: as §1
# [4] = test system: A375; assay: human cancer xenograft in mice, tumor growth inhibition; assay type: in vivo; conditions: Melanoma, HRG (WB) −
# Method: (§2) The HRG biomarker was identified by analysing the anti-tumor activity of the anti-HER3 antibody U3-1287 on various human cancer xenografts in vivo and analysis of the expression of HRG of these cell lines in vitro. Human tumor cell lines of various indications were grown as xenografts in mice and treated with the anti-HER3 antibody U3-1287 for several weeks. Inhibition of tumor growth was analysed by comparing the tumor volumes of control mice and mice treated with U3-1287. Human tumor cell lines were grown in vitro and analysed for HRG protein expression by Western blotting.
# [5] = test system: A549; assay: as above; assay type: in vivo; conditions: NSCLC, HRG (WB) +
# Method: as §2
# [6] = test system: BT474; assay: as above; assay type: in vivo; conditions: BC FISH + ve, HRG (WB) −
# Method: as §2
# [7] = test system: BxPC3; assay: as above; assay type: in vivo; conditions: Pancreas, HRG (WB) +
# Method: as §2
# [8] = test system: Calu-3; assay: as above; assay type: in vivo; conditions: Calu-3 xenograft, NSCLC, HRG (WB) +
# Method: as §2
# [9] = test system: FaDu; assay: as above; assay type: in vivo; conditions: Head&Neck, HRG (WB) +
# Method: as §2
# [10] = test system: HCC 1569; assay: as above; assay type: in vivo; conditions: HCC 1569 xenograft, BC FISH + ve, HRG (WB) −
# Method: as §2
# [11] = test system: HT-144; assay: as above; assay type: in vivo; conditions: HT-144 xenograft, Melanoma, HRG (WB) −
# Method: as §2
# [12] = test system: HT-29; assay: as above; assay type: in vivo; conditions: HT-29 xenograft, Colon, HRG (WB) −
# Method: as §2
# [13] = test system: MCF-7; assay: as above; assay type: in vivo; conditions: MCF-7 xenograft, BC FISH + ve, HRG (WB) −
# Method: as §2
# [14] = test system: MDA-MB453; assay: as above; assay type: in vivo; conditions: BC FISH + ve, HRG (WB) −
# Method: as §2
# [15] = test system: MKN-45; assay: as above; assay type: in vivo; conditions: MKN-45 xenograft, Gastric, HRG (WB) −
# Method: as §2
# [16] = test system: NC-H1975; assay: as above; assay type: in vivo; conditions: NSCLC, HRG (WB) +
# Method: as §2
# [17] = test system: NCI-H441; assay: as above; assay type: in vivo; conditions: NSCLC, HRG (WB) −
# Method: as §2
# [18] = test system: Sum225; assay: as above; assay type: in vivo; conditions: BC FISH + ve, HRG (WB) −
# Method: as §2
# [19] = test system: ZR75-1; assay: as above; assay type: in vivo; conditions: ZR75-1 xenograft, BC FISH + ve, HRG (WB) −
# Method: as §2
# [20] = test system: HER3 phosphorylation in A549 cells; assay: in vitro reduction of phospho-HER3 and phospho-AKT levels by Western blotting; assay type: cell-based, human; conditions: A549, endogenously express heregulin; FIG. 9
# Method: (§3) FIG. 9 depicts efficacy determined in vitro by measuring reduction of phospho-HER3 and phospho-AKT levels by Western blotting.
# (§4) U3-1287 efficacy was determined in vitro by measuring reduction of phospho-HER3 and phospho-AKT levels.
# [21] = test system: HER3 phosphorylation in CaOV3 cells; assay: as above; assay type: cell-based, human; conditions: CaOV3, no basal HER3 activation, stimulated with exogenous heregulin; FIG. 9
# Method: as §3, §4
# [22] = test system: HER3 phosphorylation in BT474 cells; assay: in vitro HER3 phosphorylation by Western blotting; assay type: cell-based, human; conditions: FIG. 10
# Method: FIG. 10 depicts Western blots showing that U3-1287 can block […] basal HER3 phosphorylation.
# as §4
# [23] = 9 mg/kg patritumab + erlotinib (N = 71)
# [24] = 9 mg/kg patritumab + erlotinib (N = 72)
# [25] = 18 mg/kg patritumab + erlotinib (N = 70)
# [26] = 18 mg/kg patritumab + erlotinib (N = 72)
compound,measurement,setting,value
"C#Cc1cccc(Nc2ncnc3cc(OCCOC)c(OCCOC)cc23)c1 [erlotinib, reference compound]",On-Study Death,[1]; Placebo + erlotinib (N = 71),13 subjects
same,Primary Cause of On-Study Death: Adverse Event,[1]; Placebo + erlotinib (N = 71),5 subjects
same,Primary Cause of On-Study Death: Disease Progression,[1]; Placebo + erlotinib (N = 71),8 subjects
same,Primary Reason for Discontinuing Study Treatment: Death,[1]; Placebo + erlotinib (N = 71),4 subjects
same,Primary Reason for Discontinuing Study Treatment: Progressive Disease (Radiographic Progression),[1]; Placebo + erlotinib (N = 71),50 subjects
same,OS: Subjects (%) with events,[1]; Placebo + erlotinib (N = 71),48 (67.6%) subjects (%)
same,OS: Subjects (%) without events (censored),[1]; Placebo + erlotinib (N = 71),23 (32.4%) subjects (%)
same,PFS: Subjects (%) with events,[1]; Placebo + erlotinib (N = 71),59 (83.1%) subjects (%)
same,PFS: Subjects (%) without events (censored),[1]; Placebo + erlotinib (N = 71),12 (16.9%) subjects (%)
same,"Progression-Free Survival, Time to event, Median",[1]; Placebo + erlotinib (N = 71),1.6 months
same,"Overall Survival, Time to event, Median",[1]; Placebo + erlotinib (N = 71),7.2 months
same,number of subjects with the response being CR/PR,[1]; placebo + erlotinib,4 (5.6%) subjects (%)
patritumab,maximum tolerated dose,[2]; Phase 1 study,not reached
same,dose limiting toxicity,[2]; in vivo,lack of dose limiting toxicity
same,"AEs grade≥3, number of subjects",[3],2 subjects
same,patritumab-related AE reported in ≥2 subjects,[3],decreased appetite
same,relation of grade≥3 AEs to patritumab,[3],none were related to patritumab
same,tumor response,[3],No response was recorded
same,DLTs,[3]; 18 mg/kg,no DLTs were seen; also recorded: No DLTs were reported
same,subjects with serious AEs,[3]; four serious AEs,Three
same,OS: Subjects (%) with events,[1]; [23],46 (64.8%) subjects (%)
same,OS: Subjects (%) without events (censored),[1]; [23],25 (35.2%) subjects (%)
same,PFS: Subjects (%) with events,[1]; [23],52 (73.2%) subjects (%)
same,PFS: Subjects (%) without events (censored),[1]; [23],19 (26.8%) subjects (%)
same,"Progression-Free Survival, Time to event, Median",[1]; [23],2.5 months
same,"Overall Survival, Time to event, Median",[1]; [23],6.3 months
same,On-Study Death,[1]; [24],9 subjects
same,Primary Cause of On-Study Death: Adverse Event,[1]; [24],4 subjects
same,Primary Cause of On-Study Death: Disease Progression,[1]; [24],4 subjects
same,Primary Reason for Discontinuing Study Treatment: Adverse Event,[1]; [24],6 subjects
same,Primary Reason for Discontinuing Study Treatment: Death,[1]; [24],2 subjects
same,Primary Reason for Discontinuing Study Treatment: Progressive Disease (Radiographic Progression),[1]; [24],45 subjects
same,OS: Subjects (%) with events,[1]; [25],54 (77.1%) subjects (%)
same,OS: Subjects (%) without events (censored),[1]; [25],16 (22.9%) subjects (%)
same,PFS: Subjects (%) with events,[1]; [25],58 (82.9%) subjects (%)
same,PFS: Subjects (%) without events (censored),[1]; [25],12 (17.1%) subjects (%)
same,"Progression-Free Survival, Time to event, Median",[1]; [25],1.4 months
same,"Overall Survival, Time to event, Median",[1]; [25],5.3 months
same,On-Study Death,[1]; [26],20 subjects
same,Primary Cause of On-Study Death: Adverse Event,[1]; [26],11 subjects
same,Primary Cause of On-Study Death: Disease Progression,[1]; [26],8 subjects
same,Primary Reason for Discontinuing Study Treatment: Adverse Event,[1]; [26],7 subjects
same,Primary Reason for Discontinuing Study Treatment: Death,[1]; [26],11 subjects
same,Primary Reason for Discontinuing Study Treatment: Progressive Disease (Radiographic Progression),[1]; [26],42 subjects
same,number of subjects with the response being CR/PR,[1]; high-dose patritumab (18 mg/kg every 3 weeks) + erlotinib,5 (7.1%) subjects (%)
same,number of subjects with the response being CR/PR,"[1]; low-dose patritumab (18 mg/kg loading, 9 mg/kg maintenance every 3 weeks) + erlotinib",9 (12.9%) subjects (%)
same,improvement in PFS or OS,"[1]; patritumab with erlotinib compared to erlotinib plus placebo, full analysis set (unselected ITT population)",no significant improvement
same,HR for PFS (pooled dose vs placebo),"[1]; HRG protein concentration cut-off 0 (median) pg/mL, n 66",0.58
same,HR for PFS (pooled dose vs placebo),"[1]; HRG protein concentration cut-off 1622.5 pg/mL, n 39",0.31
same,HR for PFS (pooled dose vs placebo),"[1]; HRG protein concentration cut-off 2000 pg/mL, n 34",0.28
same,HR for PFS (pooled dose vs placebo),"[1]; HRG protein concentration cut-off 3000 pg/mL, n 30",0.24
same,HR for PFS (pooled dose vs placebo),"[1]; HRG protein concentration cut-off 4000 pg/mL, n 27",0.26
same,HR for PFS (pooled dose vs placebo),"[1]; HRG protein concentration cut-off 5000 pg/mL, n 23",0.40
same,HR for PFS (pooled dose vs placebo),"[1]; HRG protein concentration cut-off 980 (Q3) pg/mL, n 46",0.41
same,treatment difference in PFS and OS,"[1]; subjects with tumors expressing low HRG at a protein level (<980 pg/mL), pooled patritumab + erlotinib vs placebo + erlotinib",no clear treatment difference
same,In vivo efficacy (SA),[4],No
same,In vivo efficacy (SA),[5],Yes
same,In vivo efficacy (SA),[6],No
same,In vivo efficacy (SA),[7],Yes
same,In vivo efficacy (SA),[8],Yes
same,In vivo efficacy (SA),[9],Yes
same,In vivo efficacy (SA),[10],No
same,In vivo efficacy (SA),[11],No
same,In vivo efficacy (SA),[12],Yes
same,In vivo efficacy (SA),[13],No
same,In vivo efficacy (SA),[14],No
same,In vivo efficacy (SA),[15],Yes
same,In vivo efficacy (SA),[16],Yes
same,In vivo efficacy (SA),[17],No
same,In vivo efficacy (SA),[18],No
same,In vivo efficacy (SA),[19],No
same,Basal HER3 phosphorylation,[20],could be blocked
same,HER3 phosphorylation,[21],could be blocked
same,efficacy on HER3 phosphorylation,[22]; BT474+HRG (exogenously added heregulin),could be overcome by exogenously added heregulin
same,efficacy on basal HER3 phosphorylation,"[22]; BT474 basal, do not express heregulin",no efficacy
same,ligand-dependent basal HER3 phosphorylation,[22]; Western blots,can block
